Data set [1] is described as follows: Serum metabolism of peptides in rat serum. It is filed as in vitro ADME. The following applies: male, Sprague Dawley, rat, rat serum. How it is done: Four month old male Sprague Dawley rats were used as the blood source for the metabolism studies. Blood was collected from left/right jugular veins of the rats using sterile catheters. After a 30 minute incubation on ice, the blood was centrifuged at 1000 rpm for 15 min to separate the serum. Serum was then transferred to clean tubes and stored at −20° C. until use.
Except for dihexa all drug solutions were prepared in HPLC grade water at 5 mg/ml. Stock drugs were kept in powder form and stored at −20° C. Serum metabolism experimental procedure and analysis. Rat blood serum samples were pre-equilibrated at 37° C. and then 10 μL (50 μg) of each drug solution was added to 90 μL of rat serum in 1.5 mL Eppendorf tube maintained at 37° C. At specified time intervals, metabolism was terminated by precipitating proteins with the addition of 1 ml of a solution of acetonitrile (ACN) and acetic acid (9:1, v/v). The terminated reaction mixture was stored in refrigerator (5° C.) overnight and centrifuged (14,000 rpm) for 30 min to remove precipitated proteins. The separated supernatant was dried in vacuum concentrator. The dried samples were reconstituted using 200 μL HPLC mobile phase (10% v/v ACN in water), vortexed briefly, and subjected to HPLC separation and analysis. A serum blank experiment to detect any interfering peaks in the HPLC chromatogram was performed by in an identical manner except that no drug was added. Zero time values for each drug candidate were established by first treating the serum with ACN, processing the sample as described above, adding drug, and then performing HPLC analysis.
The degradation rate of drug was determined by measuring the decrease in area under curve (AUC) at the retention time of drug over time. The AUC obtained from the zero time experiment was considered to represent the “100%” drug concentration and was used to determine the decreased drug concentration at each specified time interval. The semi-logarithmic plot of drug concentration vs. time was generated to determine degradation kinetic constant (k) of the tested drug. The half-life of drug was (t1/2) was calculated by 0.693/k.
Analysis of samples was performed using an HPLC system. The system consisted of a communications bus module, pumps, and a photodiode array detector. Separation was achieved using a C18 (250 mm×4.6 mm id., 5 μm particle size) reverse phase column. The column temperature was set at 40° C. The mobile phase consisted of a mixture of ACN and water with 0.1% TFA and was degassed by ultrasonication. Samples were introduced by manual mode with an injection volume of 250 μL. The drug was eluted with a flow rate of 1 mL/min and detected by PDA detector at […] wavelengths of 215 and 280 nm.

Data set [2] in a line: Dihexa pharmacokinetics in rats (IV, intraperitoneal). It is filed as in vivo, rat. How it is done:
Ethics approval for animal experimentation was obtained from Washington State University.
Dihexa solutions were prepared by suspending dry stock dihexa in DMSO at 1 mg/mL and subsequent serial dilutions in 50% DMSO or HPLC grade water for the final concentrations specified. Stock dihexa is kept in powder form and stored at −20° C. Quality control (QC) samples were prepared by spiking fresh rat plasma with an appropriate dilution of dihexa for the final concentration of dihexa specified, keeping a 10:1 ratio of plasma to dihexa solution (final DMSO concentration 5%). The compounds, Nle^1-Ang-IV and Nle-YI-(6) aminohexanoic amide, molecules very similar in structure and properties to dihexa, were used as internal standards and were prepared the same way.
The proteins present in the plasma samples were precipitated using three volumes of ice-cold acetonitrile. Internal standards were then added and the samples were vortexed for approximately 10 seconds. Samples were then centrifuged at 5000 RPM for 5 minutes. The supernatants were transferred to new tubes and stored until use at −20° C. Samples were then concentrated to a volume of approximately 100 ul. 200 ul HPLC grade water was added to each sample and the samples were transferred to autosampler vials.
Male Sprague Dawley rats were catheterized as described in the Animals and Surgical Procedures section. […] The typical injection volume was 200 μL yielding an initial estimated DMSO concentration in blood of 0.46%. After dosing, blood samples were collected as described in Table 7.
The blood samples were collected into polypropylene microcentrifuge tubes and cooled on ice for not more than 1 hour. The samples were centrifuged at 5000 RPM for 7 minutes and 80 μL plasma were transferred into previously prepared tubes containing 240 μL ice-cold acetonitrile. The samples were vortexed vigorously for 30 seconds and held on ice. 100 μg/mL Nle-YI-(6) aminohexanoic amide in 10 μL was used as an internal standard and added to each sample on ice.
10 μL of each serial dilution was then added to 90 μL of blank plasma for final concentrations of 0.01, 0.02, 0.05, 0.1, 0.2, 1, 10, 20, 50 and 100 μg/mL. 80 μL of each plasma sample was transferred to previously prepared tubes containing 240 μL ice-cold acetonitrile and vortexed vigorously. 10 μL containing 100 μg/mL Nle-YI-(6) aminohexanoic amide as an internal standard, was added to each sample on ice. The standard curve plasma samples were then stored at −20° C. and further processed alongside the pharmacokinetic study samples according to the method described above.
The analytical column that was used was n C18 (100 mm×2.1 mm). The mobile phase consisted of HPLC grade acetonitrile and water with 0.1% acetic acid. […] For MS analysis, a positive ion mode (SIM) was used to monitor the m/z of dihexa at […] (dihexa with the addition of a sodium adduct) and the m/z of Nle-YI-(6) aminohexanoic amide and Nle^1-AngIV (internal standards) at 513 and 541, respectively (both with sodium adducts). Samples were introduced using the autosampler and the injection volume was 50 ul. For the microsomal study, the m/z of verapamil was 455, the m/z of piroxicam was 332, and the m/z of 7-ethoxycoumarin was 191.
Pharmacokinetic analysis was performed using data from individual rats from which the mean and standard error of the mean (SEM) were calculated for each group.

The mark [3] stands for this setting: male, Sprague-Dawley, rat, plasma, IV 10 mg/kg, rats, Mean ± SEM.

SMILES strings stand for the structures. Read-outs that look alike come from different tables or passages of the source. Where a SMILES comes first, the peptide text is derived from it. [ ]: non-standard residue; d: D form. The star is where a group is joined. Hexanoyl = CCCCCC(=O)*; Ahx = NCCCCCC(=O)O

For the compound `CCCCCC(=O)N[C@@H](Cc1ccc(O)cc1)C(=O)N[C@H](C(=O)NCCCCCC(N)=O)[C@@H](C)CC` [Dihexa, N-hexanoic-Tyr-Ile-(6)-aminohexanoic amide] (Hexanoyl-Tyr-Ile-[Ahx]-NH2), the half-life at 0.5 mg/mL was 336 min in data set [1] (37° C., Mean +/− SD, N = 3, read-out: Half-Life (min), serum stability) and 330 min in data set [1] (read-out: t1/2 in rat serum). The Cp0 in data set [2] (IV 10 mg/kg, rats, Mean ± SEM) stood at 87.3 ± 31.9 µg/mL. The compound further came in with a KE in data set [2] (IV 10 mg/kg, rats, Mean ± SEM) of 0.00007 ± 0.00004 min⁻¹. For the same compound, the half-life in data set [2] (male, Sprague-Dawley, rat, plasma, ip, 20 mg/kg, delivered intraperitoneally, Mean+/−SEM, N=4, read-out: half-life (t1/2) (converted)) was 212 h; in data set [2] (male, Sprague-Dawley, rat, plasma, iv, 10 mg/kg, IV 10 mg/kg, rats, Mean ± SEM, read-out: t½), 304 ± 130 h; in data set [2] (male, Sprague-Dawley, rat, plasma, iv, 10 mg/kg, IV administration 10 mg/kg, rats, read-out: half-life (t1/2) (converted)), 304 h. For the same compound, the Vd in data set [2] (setting [3]) was 54.4 ± 14.8 L/kg. In data set [2] (setting [3]), this compound came in with a clearance of 2.6 ± 0.7 mL/min/kg. In data set [2] (male, Sprague-Dawley, rat, plasma, IV 10 mg/kg, rats, Mean ± SEM, N = 3), this compound gave a total exposure AUC(0-inf) of 74500 ng·h/mL.

The record behind these values is patent US9051351B2, “Hepatocyte growth factor mimics as therapeutic agents” (Washington State University, priority 2011, dated 2015).
